Data as given in patent US20210221822A1, “TRICYCLIC DERIVATIVES INHIBITOR, PREPARATION METHOD, AND APPLICATIONS THEREOF” (Jiangsu Hansoh Pharmaceutical Group Co., Ltd., priority 2018, published 2021).
Where two headings read alike, the source gives them in different places.

Key:
PI3Kα = biological target: T1, PI3Kα (Homo sapiens, UniProt P42336); assay: ADP-Glo lipid kinase assay, PI3Kα kinase activity; format: biochemical; conditions: ADP-Glo; 0.1 nM enzyme, 120 min, 50 μM ATP
T1 construct: purchased Promega V1721
T1 sequence (P42336 whole entry): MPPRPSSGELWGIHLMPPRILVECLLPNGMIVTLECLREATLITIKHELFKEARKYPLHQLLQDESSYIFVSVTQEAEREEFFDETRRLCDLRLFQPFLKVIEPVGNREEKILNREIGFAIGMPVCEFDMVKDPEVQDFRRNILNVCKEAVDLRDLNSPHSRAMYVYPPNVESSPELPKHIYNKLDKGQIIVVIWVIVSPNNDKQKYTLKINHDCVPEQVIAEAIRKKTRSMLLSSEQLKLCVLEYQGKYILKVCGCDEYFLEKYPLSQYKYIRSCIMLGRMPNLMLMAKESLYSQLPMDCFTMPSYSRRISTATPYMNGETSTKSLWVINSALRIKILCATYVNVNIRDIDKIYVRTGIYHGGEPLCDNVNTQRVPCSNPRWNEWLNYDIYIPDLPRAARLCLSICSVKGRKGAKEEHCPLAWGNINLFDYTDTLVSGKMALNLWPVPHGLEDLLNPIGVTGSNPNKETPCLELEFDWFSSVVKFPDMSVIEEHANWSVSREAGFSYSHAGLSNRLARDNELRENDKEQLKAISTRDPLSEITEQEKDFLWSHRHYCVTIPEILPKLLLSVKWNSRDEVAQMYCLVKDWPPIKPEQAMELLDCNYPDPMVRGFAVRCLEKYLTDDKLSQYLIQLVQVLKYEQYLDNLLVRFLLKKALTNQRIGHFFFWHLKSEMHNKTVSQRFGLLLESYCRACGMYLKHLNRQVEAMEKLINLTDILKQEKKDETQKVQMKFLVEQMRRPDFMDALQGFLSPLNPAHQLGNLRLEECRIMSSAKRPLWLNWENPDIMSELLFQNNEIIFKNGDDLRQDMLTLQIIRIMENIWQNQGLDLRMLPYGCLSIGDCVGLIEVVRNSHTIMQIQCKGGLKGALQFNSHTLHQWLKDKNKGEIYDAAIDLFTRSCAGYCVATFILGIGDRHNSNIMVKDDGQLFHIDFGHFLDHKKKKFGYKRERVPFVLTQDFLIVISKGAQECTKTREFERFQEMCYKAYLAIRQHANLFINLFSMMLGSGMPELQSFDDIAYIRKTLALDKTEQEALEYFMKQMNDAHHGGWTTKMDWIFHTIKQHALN
T1 sequence (P27986 whole entry partner): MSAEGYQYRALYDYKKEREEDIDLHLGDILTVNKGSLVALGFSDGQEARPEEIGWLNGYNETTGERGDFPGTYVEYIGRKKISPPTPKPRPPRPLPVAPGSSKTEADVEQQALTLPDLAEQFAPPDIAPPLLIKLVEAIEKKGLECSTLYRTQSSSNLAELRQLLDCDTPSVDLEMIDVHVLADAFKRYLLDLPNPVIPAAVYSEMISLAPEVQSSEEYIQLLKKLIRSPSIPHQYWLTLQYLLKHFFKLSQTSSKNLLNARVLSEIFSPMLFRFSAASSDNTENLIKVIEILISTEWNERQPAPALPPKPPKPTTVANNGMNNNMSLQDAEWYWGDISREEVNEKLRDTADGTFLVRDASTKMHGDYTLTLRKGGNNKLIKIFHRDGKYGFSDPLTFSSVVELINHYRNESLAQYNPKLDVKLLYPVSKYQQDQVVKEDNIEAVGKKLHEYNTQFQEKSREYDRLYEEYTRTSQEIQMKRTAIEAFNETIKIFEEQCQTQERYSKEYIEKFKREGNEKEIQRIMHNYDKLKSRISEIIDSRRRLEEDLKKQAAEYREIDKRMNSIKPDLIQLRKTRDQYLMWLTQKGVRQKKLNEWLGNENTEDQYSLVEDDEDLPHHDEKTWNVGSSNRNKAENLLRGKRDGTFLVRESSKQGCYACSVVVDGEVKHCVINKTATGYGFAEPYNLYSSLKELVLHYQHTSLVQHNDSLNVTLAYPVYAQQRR
Procedure: (§1) Experimental method: Promega's ADP-Glo lipid kinase assay method (Promega #V9102) was applied in this experiment. Lipid kinase PI3Kα/β/γ/δ catalyzed the generation of ADP from ATP in the presence of the substrate PIP2: 3PS and ATP. The lipid kinase activity was characterized by measuring the ADP content in the reaction, and the half inhibitory concentration IC50 of the compound on inhibiting PI3Kα/β/γ/δ kinase activity was thus obtained.
(§2) The kinase reaction was carried out in a white 384-well plate (Perkin Elmer #6007299). 2 μL of the compound solution of different concentrations diluted with ddH2O containing 1% DMSO was added to each well. 2 μL of ddH2O containing 1% DMSO was added to the positive control well. 2 μL of 0.1-2 nM PI3K kinase solution diluted with 5× kinase buffer (HEPES 250 mM, MgCl2 15 mM, NaCl 250 mM, BSA 0.05%) was added to each well. 2 μL of 5× kinase buffer was added to the negative control well. 4 μL of 50 μM substrate PIP2: 3PS (Promega #V1701) formulated with 10× Dilution buffer and ddH2O was added to all wells. Finally, 2 μL of […] ATP solution diluted with water was added to start the reaction. After the reaction was carried out at room temperature for 90 to 120 minutes, 10 μL of ADP-Glo Reagent (containing 10 mM MgCl2) was added to each well, and reacted at room temperature for 60 minutes to remove excess ATP in the reaction. 20 μL of Kinase Detection Reagent was added to each well, and reacted at room temperature in the dark for 20 minutes. The chemiluminescence value was measured by the BioTek Synergy H1 microplate reader.
(§3) The percentage inhibition data of the compound-treated well was calculated through the positive control well (DMSO control well) and negative control well (no kinase added) on the plate {% inhibition rate=100−[(test compound value−negative control value)]/(positive control value−negative control value)×100}. The IC50 value was calculated by fitting the data of different concentrations and corresponding percentage inhibition rates to a four-parameter nonlinear logic formula with GraphPad prism.

PI3Kβ = biological target: T2, PI3Kβ (Homo sapiens, UniProt P42338); assay: ADP-Glo lipid kinase assay, PI3Kβ kinase activity; format: biochemical; conditions: 0.4 nM enzyme, 90 min, 100 μM ATP
T2 construct: purchased Carna 11-102
T2 sequence (P42338 whole entry): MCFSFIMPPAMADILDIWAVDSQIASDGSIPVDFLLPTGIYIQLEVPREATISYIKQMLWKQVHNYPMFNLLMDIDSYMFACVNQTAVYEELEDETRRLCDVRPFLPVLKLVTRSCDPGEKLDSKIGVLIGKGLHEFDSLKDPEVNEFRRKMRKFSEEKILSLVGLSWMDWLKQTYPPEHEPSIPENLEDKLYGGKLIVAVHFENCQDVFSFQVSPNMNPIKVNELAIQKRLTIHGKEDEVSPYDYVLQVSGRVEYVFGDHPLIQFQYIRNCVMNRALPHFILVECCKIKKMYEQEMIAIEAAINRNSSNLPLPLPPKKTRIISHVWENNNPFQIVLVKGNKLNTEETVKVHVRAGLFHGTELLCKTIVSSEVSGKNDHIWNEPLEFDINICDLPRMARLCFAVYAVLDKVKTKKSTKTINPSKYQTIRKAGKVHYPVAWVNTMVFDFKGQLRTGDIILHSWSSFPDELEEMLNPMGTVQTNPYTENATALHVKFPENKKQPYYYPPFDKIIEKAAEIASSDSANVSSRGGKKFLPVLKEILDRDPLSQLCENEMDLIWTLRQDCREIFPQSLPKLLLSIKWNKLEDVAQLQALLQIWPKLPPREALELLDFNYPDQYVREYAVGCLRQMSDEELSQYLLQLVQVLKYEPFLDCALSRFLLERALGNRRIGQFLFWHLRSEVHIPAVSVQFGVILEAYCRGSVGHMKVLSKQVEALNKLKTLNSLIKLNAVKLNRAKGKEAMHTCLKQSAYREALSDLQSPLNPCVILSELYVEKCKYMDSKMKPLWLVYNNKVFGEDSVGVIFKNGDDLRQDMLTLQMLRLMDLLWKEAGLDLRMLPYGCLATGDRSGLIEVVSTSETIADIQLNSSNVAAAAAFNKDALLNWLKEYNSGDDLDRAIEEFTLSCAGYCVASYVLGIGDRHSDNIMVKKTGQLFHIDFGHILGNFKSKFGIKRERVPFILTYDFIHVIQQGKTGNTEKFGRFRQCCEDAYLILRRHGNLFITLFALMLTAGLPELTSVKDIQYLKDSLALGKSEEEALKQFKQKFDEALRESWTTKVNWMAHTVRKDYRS
T2 sequence (P27986 whole entry partner): as the sequence (P27986 whole entry partner) above
Procedure: as §1, §2, §3

PI3Kγ = biological target: T3, PI3Kγ (Homo sapiens, UniProt P48736); assay: ADP-Glo lipid kinase assay, PI3Kγ kinase activity; format: biochemical; conditions: 0.4 nM enzyme, 120 min, 50 μM ATP
T3 construct: purchased Thermofisher PV4786
T3 sequence (P48736 whole entry): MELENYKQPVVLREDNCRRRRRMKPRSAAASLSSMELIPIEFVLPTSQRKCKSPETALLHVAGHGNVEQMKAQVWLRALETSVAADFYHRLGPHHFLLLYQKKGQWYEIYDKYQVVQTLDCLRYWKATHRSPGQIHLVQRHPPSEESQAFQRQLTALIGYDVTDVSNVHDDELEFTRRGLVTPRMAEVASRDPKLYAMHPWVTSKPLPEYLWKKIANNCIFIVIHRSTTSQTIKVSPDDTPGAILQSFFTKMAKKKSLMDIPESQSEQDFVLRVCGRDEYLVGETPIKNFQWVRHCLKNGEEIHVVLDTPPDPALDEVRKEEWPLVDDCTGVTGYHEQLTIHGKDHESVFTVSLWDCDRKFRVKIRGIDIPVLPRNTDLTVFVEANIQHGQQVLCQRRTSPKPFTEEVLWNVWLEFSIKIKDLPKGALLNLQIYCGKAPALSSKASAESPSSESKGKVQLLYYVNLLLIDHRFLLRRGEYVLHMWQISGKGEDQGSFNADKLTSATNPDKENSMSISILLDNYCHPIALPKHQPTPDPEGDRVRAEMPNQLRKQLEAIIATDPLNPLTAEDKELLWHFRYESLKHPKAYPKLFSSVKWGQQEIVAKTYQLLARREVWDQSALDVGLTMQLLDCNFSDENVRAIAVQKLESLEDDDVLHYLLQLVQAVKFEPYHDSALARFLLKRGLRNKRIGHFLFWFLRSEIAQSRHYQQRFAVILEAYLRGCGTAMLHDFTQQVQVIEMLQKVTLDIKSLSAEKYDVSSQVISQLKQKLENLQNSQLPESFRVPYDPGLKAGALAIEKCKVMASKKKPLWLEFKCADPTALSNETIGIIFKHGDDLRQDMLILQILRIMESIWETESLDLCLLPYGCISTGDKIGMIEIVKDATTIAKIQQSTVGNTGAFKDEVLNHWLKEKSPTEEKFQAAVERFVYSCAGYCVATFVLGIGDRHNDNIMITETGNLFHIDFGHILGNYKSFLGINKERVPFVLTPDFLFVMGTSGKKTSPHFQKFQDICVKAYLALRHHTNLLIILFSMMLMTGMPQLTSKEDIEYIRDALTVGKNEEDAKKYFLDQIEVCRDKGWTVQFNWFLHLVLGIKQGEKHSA
Procedure: as §1, §2, §3

PI3Kδ = biological target: T4, PI3Kδ (Homo sapiens, UniProt O00329); assay: ADP-Glo lipid kinase assay, PI3Kδ kinase activity; format: biochemical; conditions: 0.1 nM enzyme, 90 min, 100 μM ATP
T4 construct: purchased Carna 11-103
T4 sequence (O00329 whole entry): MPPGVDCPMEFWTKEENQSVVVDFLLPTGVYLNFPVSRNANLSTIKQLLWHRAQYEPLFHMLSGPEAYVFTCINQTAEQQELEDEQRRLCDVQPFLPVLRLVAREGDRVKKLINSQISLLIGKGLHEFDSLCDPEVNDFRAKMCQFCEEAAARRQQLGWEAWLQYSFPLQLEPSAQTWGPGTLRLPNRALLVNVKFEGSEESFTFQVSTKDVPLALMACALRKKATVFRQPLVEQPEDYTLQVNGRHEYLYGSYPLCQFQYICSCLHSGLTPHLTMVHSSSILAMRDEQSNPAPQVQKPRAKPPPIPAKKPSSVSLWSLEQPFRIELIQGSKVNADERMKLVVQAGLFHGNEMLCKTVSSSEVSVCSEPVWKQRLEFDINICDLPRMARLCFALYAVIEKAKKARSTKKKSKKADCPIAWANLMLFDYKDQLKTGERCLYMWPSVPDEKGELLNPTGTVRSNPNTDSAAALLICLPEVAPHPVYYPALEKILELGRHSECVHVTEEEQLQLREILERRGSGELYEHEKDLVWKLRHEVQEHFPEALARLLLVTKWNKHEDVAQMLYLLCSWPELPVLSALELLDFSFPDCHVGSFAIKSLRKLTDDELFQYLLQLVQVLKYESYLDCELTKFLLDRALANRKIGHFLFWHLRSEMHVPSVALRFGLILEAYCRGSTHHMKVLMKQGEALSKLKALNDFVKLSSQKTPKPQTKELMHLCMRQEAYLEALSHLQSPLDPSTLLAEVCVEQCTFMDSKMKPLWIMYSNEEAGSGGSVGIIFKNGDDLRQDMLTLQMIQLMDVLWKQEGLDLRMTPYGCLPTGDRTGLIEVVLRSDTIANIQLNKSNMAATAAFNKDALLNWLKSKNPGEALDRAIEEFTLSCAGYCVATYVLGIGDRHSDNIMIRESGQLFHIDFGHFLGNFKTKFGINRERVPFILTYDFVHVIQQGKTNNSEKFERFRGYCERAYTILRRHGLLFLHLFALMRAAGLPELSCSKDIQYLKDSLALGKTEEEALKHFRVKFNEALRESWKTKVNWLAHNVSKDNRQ
T4 sequence (P27986 whole entry partner): as the sequence (P27986 whole entry partner) above
Procedure: as §1, §2, §3

[1] = Pharmacokinetic (PK) assay in mice; format: in vivo; conditions: male, Balb/c, mouse, plasma, po, single intragastric 5 mg/kg; for AUC(0-t): read-out: Area under curve AUC0-t; for AUC(0-inf): read-out: Area under curve AUC0-∞; for half-life: read-out: Half-life t1/2(h) (converted); for MRT: read-out: Mean residence time MRT; for Tmax: read-out: Peak time tmax; for Cmax: read-out: Plasma concentration Cmax
Procedure: The pharmacokinetic assay of the preferred compounds of the examples of the present invention in mice was carried out in Balb/c male mice (Shanghai Jiesijie Laboratory Animal Co., LTD). • Administration mode: single intragastric administration. • Administration dose: 5 mg/10 ml/kg (body weight). • Formulation: the compound was dissolved in 0.5% CMC-Na by ultrasound to obtain a clear solution or homogeneous suspension. • Sampling points: 0.5, 1, 2, 4, 6, 8 and 24 hours after administration. • Sample process: • 1) 0.1 mL of blood was taken from the orbit, placed in a K2-EDTA tube, and centrifuged for 5 to 20 minutes at room temperature at 1000 to 3000×g to separate the plasma, which was then stored at −80° C. • 2) 160 uL of acetonitrile was added to 40 uL of plasma sample for precipitation, and then the mixture was centrifuged for 5 to 20 minutes at 500 to 2000×g. • 3) 100 uL of processed supernatant was taken and analyzed by LC/MS/MS assay to determine the concentration of the test compound. • LC-MS/MS assay: • Liquid chromatography condition: Shimadzu LC-20AD pump • Mass spectrometry condition: AB Sciex API 4000 mass spectrometer • Chromatographic column: phenomenex Gemiu 5 μm C18 50×4.6 mm • Mobile phase: solution A was 0.1% aqueous formic acid solution, and solution B was acetonitrile • Flow rate: 0.8 mL/min • Elution time: 0-4 minutes gradient elution • Pharmacokinetics: […]
The main parameters were calculated using WinNonlin 6.1.

[2] = Toxicity test of a 7-day repeatedly intragastric administration in SD rats; format: in vivo
Description: (§4) 1) In the experiment, 112 rats (56 rats/sex) were divided into 14 groups by sex and body weight, wherein 70 rats were used for toxicology study (groups 1 to 7, 5 rats/sex/group) and 42 rats were used for toxicokinetics study (groups 8 to 14, 3 rats/sex/group).
2) As the vehicle control group, the animals in groups 1 and 8 were intragastrically administered 20% aqueous SBE-(3-CD (Captisol) solution.
(§5) 3) The animals in groups 2 and 9, groups 3 and 10, and groups 4 and 11 were intragastrically administered GDC-0077 at 10, 30 and 60 mg/kg, respectively.
(§6) 4) The animals in groups 5 and 12, groups 6 and 13, and groups 7 and 14 were intragastrically administered the compound of Example 51 at 10, 30 and 60 mg/kg, respectively.
(§7) 5) The animals were administered once a day for 7 consecutive days (the animals in groups 7 and 14 were administered for 6 consecutive days).
6) The administration volume was 10 mL/kg.
(§8) 7) During the experiment, items such as clinical observation, body weight, food intake, clinicopathological indicators (blood cell count, coagulation function, blood biochemistry), toxicokinetics and the like were studied.
8) All animals were euthanized on Day 8 (the animals in groups 7 and 14 were euthanized after administration on Day 6).
9) During the experiment, gross anatomy observation was carried out on animals in groups 1 to 7, animals in group 14 and dead animals (including animals in toxicokinetics study), and histopathological examination was carried out on abnormal tissues, gastrointestinal tissues (such as colon and cecum) and immune tissues (such as thymus).

[3] = Toxicokinetics in the 7-day repeated intragastric administration study in SD rats; format: in vivo, Sprague-Dawley (SD) rats; conditions: Sprague-Dawley, rat, plasma, po, read-out: average system exposure AUC
Description: Liquid chromatography−mass spectrometry (detector: API4000, electrospray source (ESI) positive ion mode, column: Agilent ZORBAX XDB-C18 (3.5 μm, 2.1×50 mm)), which was used for the biological analysis of plasma sample.
as §4, §5, §6, §7, §8

[4] = SD rats, 10, 30 and 60 mg/kg (low, middle, high dose)

## C[C@H](Nc1ccc2c(c1)OCCn1cc(N3C(=O)O[C@H](C)[C@H]3C(F)F)nc1-2)C(N)=O [Example 54, (S)-2-((2-((4S,5R)-4-(difluoromethyl)-5-methyl-2-oxooxazolidin-3-yl)-5,6-dihydrobenzo[f]imidazo[1,2-d][1,4]oxazepin-9-yl)amino)propanamide]
PI3Kα
  IC50: 1.2 nM
PI3Kβ
  IC50: 1800 nM
PI3Kγ
  IC50: 481 nM
PI3Kδ
  IC50: 336 nM
[1]
  AUC(0-t): 1560 ng·h/mL
  AUC(0-inf): 1620 ng·h/mL
  half-life: 1.8 h
  MRT: 2 h
  Tmax: 1 h
  Cmax: 832 ng/mL

## C[C@H](Nc1ccc2c(c1F)OCCn1cc(N3C(=O)OC[C@H]3C(F)F)nc1-2)C(N)=O [Example 77, (S)-2-((2-((S)-4-(Difluoromethyl)-2-oxooxazolidin-3-yl)-8-fluoro-5,6-dihydrobenzo[f]imidazo[1,2-d][1,4]oxazepin-9-yl)amino)propanamide]
PI3Kα
  IC50: 5.2 nM
PI3Kβ
  IC50: 924 nM
PI3Kγ
  IC50: 450 nM
PI3Kδ
  IC50: 306 nM
[1]
  AUC(0-t): 4090 ng·h/mL
  AUC(0-inf): 4120 ng·h/mL
  half-life: 1.2 h
  MRT: 1.7 h
  Tmax: 0.5 h
  Cmax: 2300 ng/mL

## C[C@H](Nc1ccc2c(c1F)OCCn1cc(N3C(=O)SC[C@H]3C(F)F)nc1-2)C(N)=O [Example 108, (S)-2-((2-((R)-4-(difluoromethyl)-2-oxothiazolidin-3-yl)-8-fluoro-5,6-dihydrobenzo[f]imidazo[1,2-d][1,4]oxazepin-9-yl)amino)propanamide]
PI3Kα
  IC50: 2.4 nM
PI3Kβ
  IC50: 472 nM
PI3Kγ
  IC50: 247 nM
PI3Kδ
  IC50: 194 nM
[1]
  AUC(0-t): 4240 ng·h/mL
  AUC(0-inf): 4240 ng·h/mL
  half-life: 2 h
  MRT: 3.4 h
  Tmax: 0.5 h
  Cmax: 1230 ng/mL

## COC[C@H](Nc1ccc2c(c1)OCCn1cc(N3C(=O)SC[C@H]3C(F)F)nc1-2)C(N)=O [Example 110, (S)-2-((2-((R)-4-(difluoromethyl)-2-oxothiazolidin-3-yl)-5,6-dihydrobenzo[f]imidazo[1,2-d][1,4]oxazepin-9-yl)amino)-3-methoxypropanamide]
PI3Kα
  IC50: 1 nM
PI3Kβ
  IC50: 754 nM
PI3Kγ
  IC50: 376 nM
PI3Kδ
  IC50: 139 nM
[1]
  AUC(0-t): 13700 ng·h/mL
  AUC(0-inf): 13700 ng·h/mL
  half-life: 2.8 h
  MRT: 3.7 h
  Tmax: 0.5 h
  Cmax: 4020 ng/mL

## NC(=O)[C@@H]1CCCN1c1ccc2c(c1)OCCn1cc(N3C(=O)SC[C@H]3C(F)F)nc1-2 [Example 111, (S)-1-(2-((R)-4-(difluoromethyl)-2-oxothiazolidin-3-yl)-5,6-dihydrobenzo[f]imidazo[1,2-d][1,4]oxazepin-9-yl)pyrrolidine-2-carboxamide]
PI3Kα
  IC50: 2.9 nM
PI3Kβ
  IC50: 1230 nM
PI3Kγ
  IC50: 736 nM
PI3Kδ
  IC50: 125 nM
[1]
  AUC(0-t): 1740 ng·h/mL
  AUC(0-inf): 1740 ng·h/mL
  half-life: 2.8 h
  MRT: 3.9 h
  Tmax: 0.5 h
  Cmax: 466 ng/mL

## C[C@H](Nc1ccc2c(c1)OCCn1cc(N3C(=O)OC[C@H]3C(F)F)nc1-2)C(N)=O [GDC-0077, reference compound]
[2]; SD rats
  main target organs of the toxicity: gastrointestinal tissues (such as stomach and cecum) and immune tissues (such as thymus)
[2]; SD rats, 10, 30 and 60 mg/kg
  Blood cell counting and coagulation function: In each dose group, Retic decreased in both male and female animals
  Pathology, pathological changes under the microscope: atrophy of goblet cells in the cecal mucosa, increase in thymic tingible body macrophages, and erosion, bleeding and edema of gastric mucosal
[2]; [4]
  Body weight and food intake: In the middle-dose and high-dose groups, the final body weight of all animals declined, and their food intake also declined during the same period
  Clinical observation: In the high-dose group, abnormal symptoms such as arched back, loose stools, perianal contamination and fluffy coat were observed
[2]; SD rats, dose of 60 mg/kg
  Near-death/death: near-dead/dead animals were found
[2]; SD rats, intragastric once/day for 7 days
  lethal dose: 60 mg/kg
[2]; both sexes, Sprague-Dawley, rat, in vivo, po, SD rats, intragastric once/day for 7 days, read-out: maximum tolerated dose (MTD)
  MTD at 7 days: 30 mg/kg
[3]; 10 mg/kg intragastric once a day, after the last administration, female
  AUC: 2250 ng·h/mL
[3]; 10 mg/kg intragastric once a day, after the last administration, male
  AUC: 845 ng·h/mL
[3]; 30 mg/kg intragastric once a day, after the last administration, female
  AUC: 6510 ng·h/mL
[3]; 30 mg/kg intragastric once a day, after the last administration, male
  AUC: 3000 ng·h/mL
[3]; 60 mg/kg intragastric, after the first administration, female
  AUC: 22800 ng·h/mL
[3]; 60 mg/kg intragastric, after the first administration, male
  AUC: 15400 ng·h/mL
